Source: US12486253B2, “Therapeutics for the degradation of mutant BRAF” (C4 THERAPEUTICS, INC., priority 2021, dated 2025)
Like-named read-outs stand apart in the source and are kept apart here.

Molecular target: BRAF V600E (Homo sapiens, UniProt P15056, V600E)
Assay: HiBiT cellular BRAF^V600E degradation assay
Assay type: cell-based
Conditions: for DC50: concentration at which 50% of total cellular BRAF^V600E is degraded; for Emax: read-out: HiBit 24 h Emax
[1] = A375.10 cells, 24 h, residual protein remaining in the cell

Chain of BRAF V600E (P15056 whole entry V600E): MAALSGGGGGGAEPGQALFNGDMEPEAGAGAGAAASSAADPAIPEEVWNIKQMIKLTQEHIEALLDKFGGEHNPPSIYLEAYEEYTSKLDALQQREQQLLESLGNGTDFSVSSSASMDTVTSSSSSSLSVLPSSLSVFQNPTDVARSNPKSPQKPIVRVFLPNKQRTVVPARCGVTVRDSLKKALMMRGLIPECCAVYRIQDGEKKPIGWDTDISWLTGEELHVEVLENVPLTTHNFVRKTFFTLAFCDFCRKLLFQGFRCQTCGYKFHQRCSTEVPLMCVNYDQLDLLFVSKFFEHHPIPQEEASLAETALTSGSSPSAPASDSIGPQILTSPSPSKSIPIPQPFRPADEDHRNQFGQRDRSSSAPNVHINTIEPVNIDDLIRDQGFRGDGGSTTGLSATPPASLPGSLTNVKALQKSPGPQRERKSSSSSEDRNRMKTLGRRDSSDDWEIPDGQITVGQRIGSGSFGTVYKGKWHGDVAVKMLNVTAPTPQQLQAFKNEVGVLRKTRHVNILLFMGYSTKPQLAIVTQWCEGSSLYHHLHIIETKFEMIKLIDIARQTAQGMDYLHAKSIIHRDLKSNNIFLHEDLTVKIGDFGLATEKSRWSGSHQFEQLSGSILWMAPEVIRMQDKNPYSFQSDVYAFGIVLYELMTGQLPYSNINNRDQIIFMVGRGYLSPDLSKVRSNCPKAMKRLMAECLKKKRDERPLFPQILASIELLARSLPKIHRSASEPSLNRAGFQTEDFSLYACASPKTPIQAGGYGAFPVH

SMILES | DC50 (A375.10 cells, 24 h) | Emax [1] | Emax
CCN(C)S(=O)(=O)Nc1ccc(F)c(Oc2ccc3ncn(-c4cnn(C5CCN(C(=O)CN6CCC(c7ccc(NC8CCC(=O)NC8=O)c(F)c7)CC6)CC5)c4)c(=O)c3c2)c1C#N (stereo not drawn) [Example 19, 6-[2-cyano-3-[[ethyl(methyl)sulfamoyl]amino]-6-fluorophenoxy]-3-[1-[1-[2-[4-[4-[(2,6-dioxopiperidin-3-yl)amino]-3-fluorophenyl]piperidin-1-yl]acetyl]piperidin-4-yl]pyrazol-4-yl]-4-oxoquinazoline] | 42.3 nM | – | 20.6%
CCN(C)S(=O)(=O)Nc1ccc(F)c(Oc2ccc3ncn(C4CC5(CCN(C(=O)CN6CCC(c7ccc(NC8CCC(=O)NC8=O)cc7F)CC6)CC5)C4)c(=O)c3c2)c1C#N (stereo not drawn) [Example 22, 6-[2-cyano-3-[[ethyl(methyl)sulfamoyl]amino]-6-fluorophenoxy]-3-[7-[2-[4-[4-[(2,6-dioxopiperidin-3-yl)amino]-2-fluorophenyl]piperidin-1-yl]acetyl]-7-azaspiro[3.5]nonan-2-yl]-4-oxoquinazoline] | 11.2 nM | 11.5% | –
CCN(C)S(=O)(=O)Nc1ccc(F)c(Oc2ccc3ncn(C4C5CN(C(=O)CN6CCC(c7ccc(NC8CCC(=O)NC8=O)cc7F)CC6)CC54)c(=O)c3c2)c1C#N (stereo not drawn) [Example 25, 6-[2-cyano-3-[[ethyl(methyl)sulfamoyl]amino]-6-fluorophenoxy]-3-[3-[2-[4-[4-[(2,6-dioxopiperidin-3-yl)amino]-2-fluorophenyl]piperidin-1-yl]acetyl]-3-azabicyclo[3.1.0]hexan-6-yl]-4-oxoquinazoline] | 34.8 nM | 11.9% | –
CCN(C)S(=O)(=O)Nc1ccc(F)c(Oc2ccc3ncn(C4COC5(CCN(C(=O)CC6(O)CCN(c7ccc(NC8CCC(=O)NC8=O)cc7F)CC6)CC5)C4)c(=O)c3c2)c1C#N (stereo not drawn) [Example 27, 3-[6-[2-cyano-3-[[ethyl(methyl)sulfamoyl]amino]-6-fluorophenoxy]-4-oxoquinazolin-3-yl]-8-[2-[1-[4-[(2,6-dioxopiperidin-3-yl)amino]-2-fluorophenyl]-4-hydroxypiperidin-4-yl]acetyl]-1-oxa-8-azaspiro[4.5]decane] | 15 nM | 22.2% | –
CCN(C)S(=O)(=O)Nc1ccc(F)c(Oc2ccc3ncn([C@H]4[C@@H]5CN(c6ccc(C(=O)NC7CCN(c8ccc(NC9CCC(=O)NC9=O)cc8F)CC7)cc6)C[C@@H]54)c(=O)c3c2)c1C#N (stereo partly drawn) [Example 35, 4-[6-[6-[2-cyano-3-[[ethyl(methyl)sulfamoyl]amino]-6-fluorophenoxy]-4-oxoquinazolin-3-yl]-3-azabicyclo[3.1.0]hexan-3-yl]-N-[1-[4-[(2,6-dioxopiperidin-3-yl)amino]-2-fluorophenyl]piperidin-4-yl]benzamide] | 6.82 nM | 13.6% | –
CCN(C)S(=O)(=O)Nc1ccc(F)c(Oc2ccc3ncn(CC4COC5(CCN(C(=O)CN6CCC(c7ccc(NC8CCC(=O)NC8=O)cc7F)CC6)CC5)C4)c(=O)c3c2)c1C#N (stereo not drawn) [Example 36, 3-[[6-[2-cyano-3-[[ethyl(methyl)sulfamoyl]amino]-6-fluorophenoxy]-4-oxoquinazolin-3-yl]methyl]-8-[2-[4-[4-[(2,6-dioxopiperidin-3-yl)amino]-2-fluorophenyl]piperidin-1-yl]acetyl]-1-oxa-8-azaspiro[4.5]decane] | 51.3 nM | 10.3% | –
CCN(C)S(=O)(=O)Nc1ccc(F)c(Oc2ccc3ncn(C4CC5(CCN(C(=O)NC6CCN(c7ccc(NC8CCC(=O)NC8=O)cc7F)CC6)CC5)C4)c(=O)c3c2)c1C#N (stereo not drawn) [Example 37, 2-[6-[2-cyano-3-[[ethyl(methyl)sulfamoyl]amino]-6-fluorophenoxy]-4-oxoquinazolin-3-yl]-N-[1-[4-[(2,6-dioxopiperidin-3-yl)amino]-2-fluorophenyl]piperidin-4-yl]-7-azaspiro[3.5]nonane-7-carboxamide] | 48.4 nM | – | 16.2%

The next lines start with results.

DC50 (A375.10 cells, 24 h) | Emax [1] | SMILES | Emax
30.7 nM | 18.5% | CCN(C)S(=O)(=O)Nc1ccc(F)c(Oc2ccc3ncn(-c4cnn(C5CCN(C(=O)CN6CCC(c7ccc(NC8CCC(=O)NC8=O)cc7)CC6)CC5)c4)c(=O)c3c2)c1C#N (stereo not drawn) [Example 18, 6-[2-cyano-3-[[ethyl(methyl)sulfamoyl]amino]-6-fluorophenoxy]-3-[1-[1-[2-[4-[4-[(2,6-dioxopiperidin-3-yl)amino]phenyl]piperidin-1-yl]acetyl]piperidin-4-yl]pyrazol-4-yl]-4-oxoquinazoline] | –
14.4 nM | 17.7% | CCN(C)S(=O)(=O)Nc1ccc(F)c(Oc2ccc3ncn(-c4cnn(C5CCN(C(=O)CN6CCC(c7c(F)cc(NC8CCC(=O)NC8=O)cc7F)CC6)CC5)c4)c(=O)c3c2)c1C#N (stereo not drawn) [Example 20, 6-[2-cyano-3-[[ethyl(methyl)sulfamoyl]amino]-6-fluorophenoxy]-3-[1-[1-[2-[4-[4-[(2,6-dioxopiperidin-3-yl)amino]-2,6-difluorophenyl]piperidin-1-yl]acetyl]piperidin-4-yl]pyrazol-4-yl]-4-oxoquinazoline] | –
34.3 nM | 19.6% | CCN(C)S(=O)(=O)Nc1ccc(F)c(Oc2ccc3ncn(-c4cnn(C5CCN(CC(=O)N6CCC(c7ccc(NC8CCC(=O)NC8=O)cc7)CC6)CC5)c4)c(=O)c3c2)c1C#N (stereo not drawn) [Example 21, 6-[2-cyano-3-[[ethyl(methyl)sulfamoyl]amino]-6-fluorophenoxy]-3-[1-[1-[2-[4-[4-[(2,6-dioxopiperidin-3-yl)amino]phenyl]piperidin-1-yl]-2-oxoethyl]piperidin-4-yl]pyrazol-4-yl]-4-oxoquinazoline] | –
19.3 nM | 21.7% | CCN(C)S(=O)(=O)Nc1ccc(F)c(Oc2ccc3ncn(C4CC5(CCN(C(=O)CC6(O)CCN(c7ccc(NC8CCC(=O)NC8=O)cc7F)CC6)CC5)C4)c(=O)c3c2)c1C#N (stereo not drawn) [Example 23, 6-[2-cyano-3-[[ethyl(methyl)sulfamoyl]amino]-6-fluorophenoxy]-3-[7-[2-[1-[4-[(2,6-dioxopiperidin-3-yl)amino]-2-fluorophenyl]-4-hydroxypiperidin-4-yl]acetyl]-7-azaspiro [3.5]nonan-2-yl]-4-oxoquinazoline] | –
19.5 nM | 10.8% | CCN(C)S(=O)(=O)Nc1ccc(F)c(Oc2ccc3ncn(C4COC5(CCN(C(=O)CN6CCC(c7ccc(NC8CCC(=O)NC8=O)cc7F)CC6)CC5)C4)c(=O)c3c2)c1C#N (stereo not drawn) [Example 24, 3-[6-[2-cyano-3-[[ethyl(methyl)sulfamoyl]amino]-6-fluorophenoxy]-4-oxoquinazolin-3-yl]-8-[2-[4-[4-[(2,6-dioxopiperidin-3-yl)amino]-2-fluorophenyl]piperidin-1-yl]acetyl]-1-oxa-8-azaspiro[4.5]decane] | –
8.49 nM | 10% | CCN(C)S(=O)(=O)Nc1cccc(Oc2ccc3ncn(C4CC5(CCN(C(=O)CN6CCC(c7ccc(NC8CCC(=O)NC8=O)cc7F)CC6)CC5)C4)c(=O)c3c2)c1C#N (stereo not drawn) [Example 26, 6-[2-cyano-3-[[ethyl(methyl)sulfamoyl]amino]phenoxy]-3-[7-[2-[4-[4-[(2,6-dioxopiperidin-3-yl)amino]-2-fluorophenyl]piperidin-1-yl]acetyl]-7-azaspiro[3.5]nonan-2-yl]-4-oxoquinazoline] | –
22.9 nM | 10.2% | CCN(C)S(=O)(=O)Nc1ccc(F)c(Oc2ccc3ncn(C4CCC5(CCN(C(=O)CN6CCC(c7ccc(NC8CCC(=O)NC8=O)cc7F)CC6)CC5)C4)c(=O)c3c2)c1C#N (stereo not drawn) [Example 28, 6-[2-cyano-3-[[ethyl(methyl)sulfamoyl]amino]-6-fluorophenoxy]-3-[8-[2-[4-[4-[(2,6-dioxopiperidin-3-yl)amino]-2-fluorophenyl]piperidin-1-yl]acetyl]-8-azaspiro[4.5]decan-3-yl]-4-oxoquinazoline] | –
33.7 nM | 12.1% | CCN(C)S(=O)(=O)Nc1ccc(F)c(Oc2ccc3ncn(C4CCOC5(CCN(C(=O)CN6CCC(c7ccc(NC8CCC(=O)NC8=O)cc7F)CC6)CC5)C4)c(=O)c3c2)c1C#N (stereo not drawn) [Example 29, 4-[6-[2-cyano-3-[[ethyl(methyl)sulfamoyl]amino]-6-fluorophenoxy]-4-oxoquinazolin-3-yl]-9-[2-[4-[4-[(2,6-dioxopiperidin-3-yl)amino]-2-fluorophenyl]piperidin-1-yl]acetyl]-1-oxa-9-azaspiro[5.5]undecane] | –
16.4 nM | 12.1% | CCN(C)S(=O)(=O)Nc1ccc(F)c(Oc2ccc3ncn(C4CCC5(CC4)CCN(C(=O)CN4CCC(c6ccc(NC7CCC(=O)NC7=O)cc6F)CC4)CC5)c(=O)c3c2)c1C#N (stereo not drawn) [Example 30, 9-[6-[2-cyano-3-[[ethyl(methyl)sulfamoyl]amino]-6-fluorophenoxy]-4-oxoquinazolin-3-yl]-3-[2-[4-[4-[(2,6-dioxopiperidin-3-yl)amino]-2-fluorophenyl]piperidin-1-yl]acetyl]-3-azaspiro[5.5]undecane] | –
46.9 nM | 11.6% | CCN(C)S(=O)(=O)Nc1ccc(F)c(Oc2ccc3ncn(CC4CC5(CCN(C(=O)CN6CCC(c7ccc(NC8CCC(=O)NC8=O)cc7F)CC6)CC5)C4)c(=O)c3c2)c1C#N (stereo not drawn) [Example 31, 6-[2-cyano-3-[[ethyl(methyl)sulfamoyl]amino]-6-fluorophenoxy]-3-[[7-[2-[4-[4-[(2,6-dioxopiperidin-3-yl)amino]-2-fluorophenyl]piperidin-1-yl]acetyl]-7-azaspiro[3.5]nonan-2-yl]methyl]-4-oxoquinazoline] | –
40.3 nM | 11.4% | CCN(C)S(=O)(=O)Nc1ccc(F)c(Oc2ccc3ncn(C4CCC5(CC4)CCN(C(=O)CN4CCC(c6ccc(NC7CCC(=O)NC7=O)cc6F)CC4)C5)c(=O)c3c2)c1C#N (stereo not drawn) [Example 32, 6-[2-cyano-3-[[ethyl(methyl)sulfamoyl]amino]-6-fluorophenoxy]-3-[2-[2-[4-[4-[(2,6-dioxopiperidin-3-yl)amino]-2-fluorophenyl]piperidin-1-yl]acetyl]-2-azaspiro[4.5]decan-8-yl]-4-oxoquinazoline] | –
